Experimental data: US20240224994A1, “INSECT REPELLANT FORMULATION AND METHOD OF USING SAME” (United Industries Corporation, priority 2021, published 2024)

System: Deer Ticks, Ixodes ricinus
Experiment: Efficacy of nootkatone formulations against ticks on human forearm skin (complete protection time)
Format: in vivo
Details: FIG. 1; human skin test
Procedure: The objective of the study was estimate the complete protection time (CPT) of the various repellent formulations against ticks. Complete protection time (CPT) was measured as the length of time from initial application to the First Confirmed Crossing (FCC).
A number of 32 volunteers were selected based on signing of informed consent form and passing the sensitivity test, 24-48 hours before the initiation of the experiment. The volunteers were briefed about the experiment in detail prior to signing the consent form. Test volunteers were instructed to avoid alcohol, tobacco, caffeine, and fragrance products (e.g., perfume, cologne, hair spray, lotion, etc.) at least for 12 hours before, and during the test.
The test substance/positive control (liquid) was applied at 1 ml/600 cm^2±10% deviation. […] The treatment area was calculated by measuring the circumference (cm) of the wrist (B), the circumference (cm) at the elbow-cubital fossa (C) when the arm is extended, and the distance (cm) from the elbow to the wrist (D) The surface area (in cm^2) of skin was calculated by: […]
Fresh ticks were exposed to the treated area one at a time, at regular intervals of 30 minutes until the first crossing or observation were recorded as “not repelled.” The cycle continues until efficacy failure or the end of the study, whichever occurs first. […]

OCc1ccccc1 [benzyl alcohol]
effect of ingredient on CPT of the compositions: effective in prolonging the CPT
